The results in this text go back to US6221871A, “Certain aminomethyl biphenyl, aminomethyl phenyl pyridine and aminomethyl phenyl pyrimidine derivatives; novel dopamine receptor subtype selective ligands” (priority 1999, dated 2001).

Experiment [1] addresses T1, human dopamine D4 receptor subtype (Homo sapiens, UniProt P21917).
T1 construct: expressed in transfected cells
T1 sequence (P21917 1-419): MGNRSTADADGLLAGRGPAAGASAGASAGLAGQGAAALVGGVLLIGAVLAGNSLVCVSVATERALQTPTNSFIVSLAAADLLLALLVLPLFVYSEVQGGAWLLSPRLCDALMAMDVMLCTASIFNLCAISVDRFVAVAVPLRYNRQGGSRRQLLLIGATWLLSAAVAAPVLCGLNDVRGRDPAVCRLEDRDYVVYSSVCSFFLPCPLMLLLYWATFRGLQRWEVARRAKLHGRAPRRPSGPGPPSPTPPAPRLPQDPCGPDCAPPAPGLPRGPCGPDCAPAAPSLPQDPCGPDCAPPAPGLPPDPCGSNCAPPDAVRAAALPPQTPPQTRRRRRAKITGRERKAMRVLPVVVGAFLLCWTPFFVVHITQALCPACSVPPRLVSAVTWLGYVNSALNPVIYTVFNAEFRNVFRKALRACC
Nature of the experiment: D4 receptor binding, [3H]YM-09151-2 displacement. The protocol: Assay for D4 receptor binding activity
Clonal cell lines expressing the human dopamine D4 receptor subtype were harvested in PBS and the cells centrifuged and the pellets stored at -80° C. until used in the binding assay. The pellets were resuspended and the cells lysed at 4° C. in 50 mM Tris pH 7.4 buffer containing 120 mM NaCl, 1 mM EDTA and 5 mM MgCl2. The homogenate is centrifuged at 48000× g for 10 minutes at 4° C. The resulting pellet is resuspended in fresh buffer and centrifuged again. After resuspension of the pellet in fresh buffer a […] aliquot is removed for protein determination. The remaining homogenate is centrifuged as above, the supernatant removed and the pellet stored at 4° C. until needed; at which time it is resuspended to a final concentration of […] with 50 mM Tris buffer (pH 7.4) and 120 mM NaCl just prior to use. Incubations were carried out for 60 minutes at 25° C. in the presence of 0.1 nM [^3 H] YM-09151-2. The incubation was terminated by rapid filtration through Whatman GF/C filters and rinsed with 2×4 ml washes of chiled 50 mM Tris (pH 7.4) and 120 mM NaCl. Non-specific binding was determined with 1 mM spiperone and radioactivity determined by counting in an LKB beta counter. Binding parameters were determined by non-linear least squares regression analysis, from which the inhibition constant Ki could be calculated for each test compound. The binding characteristics of some examples of this patent are shown in Table 2 for the dopamine D4 binding assay.

For a further experiment, the target named is D2 receptor (Rattus norvegicus, UniProt P61169). Briefly: biochemical. The class given is binding.
D2 receptor, sequence (P61169 whole entry): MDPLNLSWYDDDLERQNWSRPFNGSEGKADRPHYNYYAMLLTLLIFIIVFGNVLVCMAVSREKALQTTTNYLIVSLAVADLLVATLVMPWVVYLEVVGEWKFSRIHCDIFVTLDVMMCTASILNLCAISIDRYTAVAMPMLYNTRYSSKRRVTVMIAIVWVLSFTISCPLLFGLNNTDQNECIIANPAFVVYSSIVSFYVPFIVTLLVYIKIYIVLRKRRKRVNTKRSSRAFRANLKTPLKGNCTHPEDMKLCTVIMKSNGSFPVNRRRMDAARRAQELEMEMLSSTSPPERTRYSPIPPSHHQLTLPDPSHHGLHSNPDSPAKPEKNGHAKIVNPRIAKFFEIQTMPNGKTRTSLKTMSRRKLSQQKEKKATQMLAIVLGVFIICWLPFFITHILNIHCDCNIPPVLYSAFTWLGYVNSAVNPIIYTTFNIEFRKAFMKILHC
The target in the next experiment is D3 receptor. Nature of the experiment: D3 receptor binding, [3H]raclopride displacement. The settings on record: 0.5 nM 3H-raclopride; recombinantly produced D3 receptors, BHK 293 cells.
The mark [2] stands for this setting: 0.1 nM [3H]YM-09151-2, 60 min, 25° C., clonal cell lines expressing human D4 (Table 2), read-out: Ki.
The mark [3] stands for this setting: 0.5 nM 3H-raclopride, rat striatal homogenates (Table 1), read-out: D2 binding IC50.

Where a name gives a salt, the structure may show the parent alone. Read-outs that look alike come from different tables or passages of the source.

Method for D2 receptor: (§1) Assay for D2 and D3 receptor binding activity
(§2) Striatial tissue is dissected from adult male Sprague Dawley rats or BHK 293 cells are harvested containing recombinantly produced D2 or D3 receptors. The sample is homogenized in 100 volumes (w/vol) of 0.05 M Tris HCl buffer at 4° C. and pH 7.4. The sample is then centrifuged at 30,000× g and resuspended and rehomogenized. The sample is then centrifuged as described and the final tissue sample is frozen until use. The tissue is resuspended 1:20 (wt/vol) in 0.05 M Tris HCl buffer containing 100 mM NaCl.
(§3) Incubations are carried out at 48° C. and contain 0.5 ml of tissue sample, 0.5 nM ^3 H-raclopride and the compound of interest in a total incubation of 1.0 ml.
Method for D3 receptor: as §1, §2, §3

The term Ki denotes the dissociation constant of the complex between target and ligand, obtained from inhibition or displacement. For orientation: IC50 means the point on the concentration scale where inhibition reaches its midpoint. As for `COc1ccc(-c2ccccc2)cc1CN1CCN(c2ncccn2)CC1` [Compound 1, 4phenyl-2-[(4-(2-pyrimidinyl)-piperazinyl)methyl]-anisole dihydrochloride], the Ki in experiment [1] (setting [2]) stood at 32 nM. On D2 receptor (setting [3]), the 50% inhibitory concentration (IC50) turned out to be 175 nM.
Regarding `COc1ccc(CN2CCN(c3ncccn3)CC2)cc1-c1ccccc1` [Compound 2, 2-phenyl-4-[(4-(2-pyrimidinyl)-piperazinyl)methyl]anisole dihydrochloride], the inhibition constant (Ki) in experiment [1] (setting [2]) turned out to be 243 nM.
Turning to `C1=C(c2ccccc2)CCN(Cc2cccc(-c3ccccc3)c2)C1` [Compound 3, 3-[(4-1,2,3,6-tetrahydropyridin-1-yl)methyl]biphenyl hydrochloride], the Ki in experiment [1] amounted to 18 nM. In addition, the IC50 against D2 receptor and at D3 receptor was 12 nM throughout.
As for `c1ccc(-c2cccc(CN3CCC(c4ccccc4)CC3)c2)cc1` [Compound 4, 3-[(4phenyl-piperidin-1-yl)methyl]biphenyl hydrochloride], the Ki in experiment [1] (setting [2]) is 28 nM. The IC50 is 5 nM at D2 receptor (setting [3]) and 61 nM on D3 receptor.
For `Cc1cc(-c2ccccc2)ccc1CN1CCC(Cc2ccccc2)CC1` [Compound 5, 3-phenyl-6-[(4-benzyl-piperidin-1-yl)methyl]toluenehydrochloride], the Ki in experiment [1] (setting [2]) was 286 nM. Moreover, the IC50 at D3 receptor was determined as 2490 nM.
For `CC(c1cccc(-c2ccccc2)c1)N(C)Cc1ccccc1` (centres unmarked) [Compound 6, N-(1-(3-biphenyl)ethyl-N-methylbenzylamine hydrochloride], the Ki in experiment [1] (setting [2]) was more than 75 nM. The half-inhibitory concentration (IC50) on D3 receptor amounted to 6120 nM.
For `COc1ccccc1N1CCN(C(C)c2cccc(-c3ccccc3)c2)CC1` (centres unmarked) [Compound 7, 1-(2-methoxyphenyl)-4-(1-(3-biphenyl)ethyl)piperazine dihydrochloride] the same measures were more than 75 nM and 342 nM.
`c1ccc(-c2cc(CN3CCN(c4ncccn4)CC3)cc(-c3ccccc3)c2)cc1` [Compound 8, 1-(2-pyrimidyl)-4-((3,5-diphenylphenyl)methyl)piperazine dihydrochloride]: in experiment [1] (setting [2]), the Ki amounted to 1050 nM. Besides, the IC50 on D2 receptor (setting [3]) came out at 1940 nM.
For `c1ccc(CC2CCN(Cc3ccnc(-c4ccccc4)c3)CC2)cc1` [Compound 9, 2-phenyl-4-[(4-benzyl-piperidin-1-yl)methyl]-pyridine dihydrochloride] the same measures were 56 nM and 290 nM.
Turning to `c1ccc(CC2CCN(Cc3cccc(-c4ccccc4)n3)CC2)cc1` [Compound 10, 2-Phenyl-6-[(4benzyl-piperidin-1-yl)methyl]-pyridine], in experiment [1] (setting [2]), the Ki came out at 769 nM. Moreover, the IC50 on D3 receptor came out at 1140 nM.
For `c1ccc(CC2CCN(Cc3ccnc(-c4ccccc4)n3)CC2)cc1` [Compound 11, 2-phenyl-4-[(4-benzyl-piperidin-1-yl)methyl]-pyrimidine dihydrochloride] the same measures were 600 nM and 1610 nM.
